The source of these data is US6750228B1, “Aromatic sulfone hydroxamic acid metalloprotease inhibitor” (priority 1997, dated 2004).

Common to all, as to assay: biochemical
One assay addresses T1, MMP-13 (Homo sapiens, UniProt P45452).
T1 construct: made in house; host or cells: baculovirus / insect cells
As to conditions: recombinant human MMP-13, MCA peptide substrate 4 μM, pH 7.5, room temperature. Summed up:
(§1)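 APMA- or trypsin-activated enzymes were preincubated with inhibitor for 5 min at room temperature, then the fluorogenic substrate MCA-Pro-Leu-Gly-Leu-Dpa-Ala-Arg-NH2 was added to a final 4 μM.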

The next assay deals with T2, MMP-1 (Homo sapiens, UniProt P03956).
T2 construct: made in house; host or cells: transfected HT-1080 cells (provided by Dr. Harold Welgus, Washington University)
T2 sequence (P03956 100-469): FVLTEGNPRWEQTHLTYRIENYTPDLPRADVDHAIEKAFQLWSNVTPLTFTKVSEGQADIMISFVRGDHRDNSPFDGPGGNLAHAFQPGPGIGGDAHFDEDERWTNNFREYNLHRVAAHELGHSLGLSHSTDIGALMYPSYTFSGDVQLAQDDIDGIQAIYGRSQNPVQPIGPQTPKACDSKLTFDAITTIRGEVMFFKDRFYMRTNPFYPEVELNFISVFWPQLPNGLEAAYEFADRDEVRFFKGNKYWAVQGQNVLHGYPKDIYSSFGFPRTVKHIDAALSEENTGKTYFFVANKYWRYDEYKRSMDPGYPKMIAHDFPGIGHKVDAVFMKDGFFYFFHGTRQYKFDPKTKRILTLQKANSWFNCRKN
As to conditions: recombinant human MMP-1, MCA peptide substrate 4 μM, pH 7.5, room temperature; read-out: MMP-1 IC50. In a few lines:
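APMA- or trypsin-activated human MMPs (MMP-1 from transfected HT-1080 cells, MMP-2 from transfected cells) preincubated with inhibitor in 1% DMSO at room temperature, then 4 μM MCA-Pro-Leu-Gly-Leu-Dpa-Ala-Arg-NH2 added in Tris/NaCl/CaCl2 buffer pH 7.5. IC50 from fluorescence reduction versus inhibitor concentration.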

Another assay deals with T3, MMP-2 (Homo sapiens, UniProt P08253).
T3 construct: made in house; provided by Dr. Gregory Goldberg, Washington University
T3 sequence (P08253 110-660): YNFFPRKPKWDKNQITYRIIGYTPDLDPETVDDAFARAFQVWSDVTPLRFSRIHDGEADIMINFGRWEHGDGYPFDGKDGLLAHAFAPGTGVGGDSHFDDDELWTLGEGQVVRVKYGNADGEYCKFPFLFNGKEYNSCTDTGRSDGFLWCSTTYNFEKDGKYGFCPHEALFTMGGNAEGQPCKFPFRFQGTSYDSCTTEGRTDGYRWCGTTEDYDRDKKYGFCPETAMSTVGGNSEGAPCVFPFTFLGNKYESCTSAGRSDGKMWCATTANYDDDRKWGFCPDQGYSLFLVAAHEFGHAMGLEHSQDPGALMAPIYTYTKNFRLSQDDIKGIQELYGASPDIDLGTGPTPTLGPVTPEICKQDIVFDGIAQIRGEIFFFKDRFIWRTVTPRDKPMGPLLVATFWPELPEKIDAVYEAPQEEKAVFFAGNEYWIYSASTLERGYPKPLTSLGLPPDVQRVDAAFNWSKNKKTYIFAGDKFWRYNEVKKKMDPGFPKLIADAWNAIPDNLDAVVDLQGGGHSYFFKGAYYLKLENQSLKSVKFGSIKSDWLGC
Summed up: as §1

[1] abbreviates: recombinant human MMP-2, MCA peptide substrate 4 μM, pH 7.5, room temperature, read-out: MMP-2 IC50.

Like-named read-outs stand apart in the source and are kept apart here.

One may read the IC50 as the concentration at which inhibition is half-maximal.

For `O=C(c1ccco1)N1CCN(c2ccc(S(=O)(=O)C3(C(=O)NO)CCOCC3)cc2)CC1` [Example 537], the IC50 at MMP-13 (read-out: MMP-13 IC50) amounted to 70 nM; on MMP-1, 5200 nM; at MMP-2 (setting [1]), 55 nM.

Take `O=C(NO)C1(S(=O)(=O)c2ccc(N3CCN(Cc4ccccc4)CC3)cc2)CCOCC1` [Example 538]: the figures for the IC50 at MMP-13 (read-out: MMP-13 IC50), on MMP-1 and at MMP-2 (setting [1]) were 80 nM, above 10000 nM and 370 nM, respectively.

Turning to `CC(=O)N1CCN(c2ccc(S(=O)(=O)C3(C(=O)NO)CCOCC3)cc2)CC1` [Example 539], the half-inhibitory concentration (IC50) on MMP-13 (read-out: MMP-13 IC50) is 270 nM; on MMP-1, above 10000 nM; at MMP-2 (setting [1]), 350 nM.

For `O=C(NO)C1(S(=O)(=O)c2ccc(N3CCC(c4cccc5ccccc45)CC3)cc2)CCOCC1` [Example 540], the IC50 on MMP-13 (MMP-13 IC50 (nM)) was 11.4 nM; on MMP-1 it was above 10000 nM; on MMP-2 (setting [1]) it was 500 nM.

Take `O=C(NO)C1(S(=O)(=O)c2ccc(N3CCC(c4ccc(Cl)cc4)CC3)cc2)CCOCC1` [Example 541]: the 50% inhibitory concentration (IC50) on MMP-13 (MMP-13 IC50 (nM)) is 0.7 nM; at MMP-1, above 10000 nM; on MMP-2 (setting [1]), 2 nM.

On to `O=C(NO)C1(S(=O)(=O)c2ccc(N3CCC(c4ccccc4-c4ccc(F)cc4)CC3)cc2)CCOCC1` [Example 543], for which the half-maximal inhibitory concentration (IC50) on MMP-13 (MMP-13 IC50 (nM)) is 33.7 nM; at MMP-1 it was above 10000 nM; at MMP-2 (setting [1]) it was 5400 nM.

Regarding `CCOc1ccccc1C1CCN(c2ccc(S(=O)(=O)C3(C(=O)NO)CCOCC3)cc2)CC1` [Example 544], the results for the IC50 at MMP-13 (read-out: MMP-13 IC50), on MMP-1 and against MMP-2 (MMP-2 IC50 (nM)) were 35 nM, above 10000 nM and 3100 nM, respectively.

Regarding `O=C(NO)C1(S(=O)(=O)c2ccc(N3CCC(Oc4cc(F)cc(F)c4)CC3)cc2)CCOCC1` [Example 545], the 50% inhibitory concentration (IC50) on MMP-13 (read-out: MMP-13 IC50) was 7.7 nM; at MMP-1, above 10000 nM; on MMP-2 (setting [1]), 120 nM.

With `O=C(NO)C1(S(=O)(=O)c2ccc(N3CCC(Oc4ccc([N+](=O)[O-])cc4)CC3)cc2)CCOCC1` [Example 546], the IC50 was 2.7 nM at MMP-13 (read-out: MMP-13 IC50), above 10000 nM at MMP-1 and 18.6 nM at MMP-2 (setting [1]).

Consider `O=C(NO)C1(S(=O)(=O)c2ccc(N3CCC(Oc4ccccc4F)CC3)cc2)CCOCC1` [Example 547], for which the values for the IC50 at MMP-13 (read-out: MMP-13 IC50), on MMP-1 and on MMP-2 (setting [1]) were 5 nM, above 10000 nM and 64.7 nM, respectively.

Regarding `O=C(NO)C1(S(=O)(=O)c2ccc(N3CCC(Oc4ccc([N+](=O)[O-])c(F)c4)CC3)cc2)CCOCC1` [Example 548], the half-maximal inhibitory concentration (IC50) at MMP-13 (read-out: MMP-13 IC50) was 40 nM; on MMP-1 it was above 10000 nM; on MMP-2 (setting [1]), 800 nM.

Take `O=C(NO)C1(S(=O)(=O)c2ccc(N3CCC(Oc4cc(F)c([N+](=O)[O-])c(F)c4)CC3)cc2)CCOCC1` [Example 549]: the half-inhibitory concentration (IC50) was 55.3 nM at MMP-13 (read-out: MMP-13 IC50), above 10000 nM at MMP-1 and 2900 nM on MMP-2 (setting [1]).

`Cc1ccc([N+](=O)[O-])c(OC2CCN(c3ccc(S(=O)(=O)C4(C(=O)NO)CCOCC4)cc3)CC2)c1` [Example 550]: the IC50 at MMP-13 (read-out: MMP-13 IC50) was 20 nM; at MMP-1, above 10000 nM; on MMP-2 (setting [1]), 2000 nM.

Take `Cc1ccc(OC2CCN(c3ccc(S(=O)(=O)C4(C(=O)NO)CCOCC4)cc3)CC2)c([N+](=O)[O-])c1` [Example 551]: the IC50 at MMP-13 (read-out: MMP-13 IC50) was 9 nM; at MMP-1, above 10000 nM; at MMP-2 (setting [1]), 140 nM.

As to `O=C(NO)C1(S(=O)(=O)c2ccc(N3CCC(Oc4ccccc4[N+](=O)[O-])CC3)cc2)CCOCC1` [Example 552], the 50% inhibitory concentration (IC50) at MMP-13 (read-out: MMP-13 IC50) is 12.8 nM; at MMP-1, above 10000 nM; at MMP-2 (setting [1]), 140 nM.

For the compound `Nc1ccc(OC2CCN(c3ccc(S(=O)(=O)C4(C(=O)NO)CCOCC4)cc3)CC2)cc1` [Example 553], the 50% inhibitory concentration (IC50) is 12.8 nM on MMP-13 (read-out: MMP-13 IC50), above 10000 nM on MMP-1 and 50 nM on MMP-2 (setting [1]).

With `CC(C)OCc1ccc(COC2CCN(c3ccc(S(=O)(=O)C4(C(=O)NO)CCOCC4)cc3)CC2)cc1` [Example 554], the half-maximal inhibitory concentration (IC50) on MMP-13 (read-out: MMP-13 IC50) was 3.7 nM; on MMP-1, above 10000 nM; on MMP-2 (setting [1]), 140 nM.

In the case of `CC(C)COCc1ccc(COC2CCN(c3ccc(S(=O)(=O)C4(C(=O)NO)CCOCC4)cc3)CC2)cc1` [Example 555], the IC50 on MMP-13 (read-out: MMP-13 IC50) was 3.7 nM; on MMP-1 it was above 10000 nM; on MMP-2 (setting [1]), 220 nM.

`CCC(C)OCc1ccc(COC2CCN(c3ccc(S(=O)(=O)C4(C(=O)NO)CCOCC4)cc3)CC2)cc1` (stereo not drawn) [Example 556]: the IC50 is 4.5 nM at MMP-13 (read-out: MMP-13 IC50), above 10000 nM on MMP-1 and 170 nM at MMP-2 (setting [1]).

Turning to `N#Cc1ccccc1-c1ccc(COC2CCN(c3ccc(S(=O)(=O)C4(C(=O)NO)CCOCC4)cc3)CC2)cc1` [Example 557], the values for the IC50 at MMP-13 (read-out: MMP-13 IC50), on MMP-1 and at MMP-2 (setting [1]) were 16.9 nM, above 10000 nM and 200 nM, respectively.

For `O=C(NO)C1(S(=O)(=O)c2ccc(N3CCC(OCc4ccc(F)cc4F)CC3)cc2)CCOCC1` [Example 558], the IC50 on MMP-13 (read-out: MMP-13 IC50) was 4.5 nM; at MMP-1, above 10000 nM; on MMP-2 (setting [1]), 66.4 nM.

With `N#Cc1ccccc1COC1CCN(c2ccc(S(=O)(=O)C3(C(=O)NO)CCOCC3)cc2)CC1` [Example 559], the half-inhibitory concentration (IC50) at MMP-13 (read-out: MMP-13 IC50) was 7.2 nM; at MMP-1, above 10000 nM; on MMP-2 (setting [1]) it was 80 nM.

Take `N#Cc1cccc(COC2CCN(c3ccc(S(=O)(=O)C4(C(=O)NO)CCOCC4)cc3)CC2)c1` [Example 560]: the IC50 at MMP-13 (read-out: MMP-13 IC50) was 4.5 nM; on MMP-1, above 10000 nM; at MMP-2 (setting [1]), 306 nM.

Consider `COc1c(F)c(F)c(COC2CCN(c3ccc(S(=O)(=O)C4(C(=O)NO)CCOCC4)cc3)CC2)c(F)c1F` [Example 561], for which the half-inhibitory concentration (IC50) at MMP-13 (read-out: MMP-13 IC50) was 6 nM; at MMP-1 it was above 10000 nM; at MMP-2 (setting [1]), 500 nM.

Turning to `CCOC1CCCN(c2ccc(S(=O)(=O)C3(C(=O)NO)CCOCC3)cc2)C1` (stereo not drawn) [Example 562], the IC50 at MMP-13 (read-out: MMP-13 IC50) was 1200 nM; at MMP-1 it was above 10000 nM; at MMP-2 (setting [1]), 6300 nM.

As to `CCOCC1CCCN(c2ccc(S(=O)(=O)C3(C(=O)NO)CCOCC3)cc2)C1` (stereo not drawn) [Example 563], the IC50 on MMP-13 (read-out: MMP-13 IC50) was 70 nM; at MMP-1, above 10000 nM; at MMP-2 (setting [1]), 235 nM.

For `O=C(NO)C1(S(=O)(=O)c2ccc(N3CCC(O)CC3)cc2)CCOCC1` [Example 564], the figures for the IC50 at MMP-13 (read-out: MMP-13 IC50), at MMP-1 and on MMP-2 (setting [1]) were 150 nM, above 10000 nM and 550 nM, respectively.

In the case of `O=C(NO)C1(S(=O)(=O)c2ccc(N3CCC(OCc4ccc(COCC(F)(F)C(F)(F)F)cc4)CC3)cc2)CCOCC1` [Example 565], the results for the 50% inhibitory concentration (IC50) at MMP-13 (read-out: MMP-13 IC50), on MMP-1 and on MMP-2 (setting [1]) were 5.5 nM, above 10000 nM and 700 nM, respectively.

For the compound `CN(C)Cc1ccc(COC2CCN(c3ccc(S(=O)(=O)C4(C(=O)NO)CCOCC4)cc3)CC2)cc1` [Example 566], the IC50 at MMP-13 (read-out: MMP-13 IC50) is 15.8 nM; on MMP-1, above 10000 nM; at MMP-2 (setting [1]), 57.1 nM.

As for `O=C(NO)C1(S(=O)(=O)c2ccc(N3CCC(Oc4ccc(C(F)(F)F)cc4)CC3)cc2)CCOCC1` [Example 567], the IC50 is 5 nM on MMP-13 (read-out: MMP-13 IC50), above 10000 nM at MMP-1 and 87.7 nM at MMP-2 (setting [1]).

With `O=C(NO)C1(S(=O)(=O)c2ccc(N3CCC(Oc4ccccc4C(F)(F)F)CC3)cc2)CCOCC1` [Example 568], the half-inhibitory concentration (IC50) is 120 nM at MMP-13 (read-out: MMP-13 IC50), above 10000 nM at MMP-1 and 4600 nM at MMP-2 (setting [1]).

Turning to `O=C(NO)C1(S(=O)(=O)c2ccc(N3CCC(Oc4ccc([N+](=O)[O-])c(C(F)(F)F)c4)CC3)cc2)CCOCC1` [Example 569], the figures for the half-inhibitory concentration (IC50) at MMP-13 (read-out: MMP-13 IC50), at MMP-1 and at MMP-2 (setting [1]) were 16.9 nM, above 10000 nM and 87.7 nM, respectively.
